Assay results published in patent US6410592B1, “Aminomethylcarboxylic acid derivatives” (Akzo Nobel N.V., priority 1998, dated 2002).
Structures can show the parent of a compound that is named as a salt.

What was measured:
[1] = biological target: T1, human GlyT-1b transporter (Homo sapiens, UniProt P48067); assay: glycine uptake in CHO cells heterologously expressing the human GlyT-1b transporter; type: cell-based; conditions: [3H]glycine uptake, CHO cells stably expressing hGlyT-1b, 5 min preincubation, 10 min uptake, 37° C.; for IC50: read-out: pIC50, Inhibition of glycine transport by hGlyT-1 (converted)
T1 construct: expressed in transfected cells; host or cells: CHO cells, stably transfected, pcDNA3 expression construct
T1 sequence (P48067 1-652 isoform P48067-3): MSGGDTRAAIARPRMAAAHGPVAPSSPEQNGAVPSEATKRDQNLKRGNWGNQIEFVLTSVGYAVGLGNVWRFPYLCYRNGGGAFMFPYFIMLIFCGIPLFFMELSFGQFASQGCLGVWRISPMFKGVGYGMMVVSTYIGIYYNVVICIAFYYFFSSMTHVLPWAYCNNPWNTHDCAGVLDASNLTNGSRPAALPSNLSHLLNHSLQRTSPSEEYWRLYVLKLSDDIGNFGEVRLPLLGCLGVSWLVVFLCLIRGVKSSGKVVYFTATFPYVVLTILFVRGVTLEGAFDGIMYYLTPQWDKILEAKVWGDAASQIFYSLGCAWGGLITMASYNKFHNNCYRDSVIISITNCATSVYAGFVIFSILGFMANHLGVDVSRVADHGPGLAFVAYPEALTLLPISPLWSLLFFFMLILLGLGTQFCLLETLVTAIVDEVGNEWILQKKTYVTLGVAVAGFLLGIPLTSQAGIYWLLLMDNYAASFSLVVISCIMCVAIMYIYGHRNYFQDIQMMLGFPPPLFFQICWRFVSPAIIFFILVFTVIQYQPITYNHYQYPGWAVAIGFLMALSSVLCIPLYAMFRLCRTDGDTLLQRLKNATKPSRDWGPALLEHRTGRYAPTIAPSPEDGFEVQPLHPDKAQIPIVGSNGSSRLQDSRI
Description: Method for determination of glycine uptake in CHO cells heterologously expressing the human GlyT-1b transporter.
cDNA was generated by PCR according to the method described by Kim, K.-M. et al. Mol. Pharmacol. 1994, 45, 608-617. Sequence was verified by dideoxy sequencing using the ALF DNA sequencer™ (Pharmacia) and cloned into the expression construct pcDNA3 (Invitrogen).
Transfection of hGlyT-1b into CHO cells was performed using a standard calcium phosphate technique as described by Sambrook, J. et al. (1989) in Molecular Cloning: A Laboratory Manual, Cold Spring Harbor Laboratory, Cold Spring Harbor, N.Y.
Stably transfected cells were selected for 1 week in growth medium containing 1 mg.cm^−3 Geneticin. Individual clones were picked for further analysis and positives passaged routinely as described below.
Cells stably expressing the hGlyT-1b gene were cultured at 37° C. in a 5% CO2 atmosphere in DMEM—NUT.MIX. F12 with Glutamax-1 (Gibco) containing Geneticin (0.5 mg.cm^−3, Gibco) and supplemented with 10% Fetalclone II (Hyclone). Maintenance culture was carried out in standard 80 cm^2 ventilated flasks (2 m^−6 filter, Nunc) and cells were subcultured by trypsinisation (Sigma) when confluent.
Cells for uptake studies were plated in 96 well plates (17,000 cells per well) in the absence of Geneticin and cultured for 48 h before use. To measure glycine transport, cells were washed twice with Hanks' balanced salt solution (HBSS) pre-warmed to 37° C. and excess fluid removed before addition of test compounds dissolved in 0.200 cm^3 HBSS. Plates were incubated at 37° C. for 5 minutes before addition of [^3H]glycine (0.050 cm^3, 150 M^−6, 248 Bq.nmol^−1, NEN) and incubation continued for a further 10 minutes. Uptake was terminated by washing cells with ice-cold HBSS before removal of excess fluid and addition of 0.200 cm^3 scintillation cocktail to each well. Plates were sealed with adhesive film, shaken to ensure samples were homogenous before scintillation counting in a plate counter.
Data were analysed using standard curve fitting procedures to produce a pIC50 value for active compounds (where pIC50 is the negative logarithm of the concentration of test compound causing 50% inhibition of uptake).

Structure (SMILES) | melting point | IC50 [1] | other results
COc1ccc2c(c1)CC[C@H](CN(C)CC(=O)O)[C@@H]2c1cccc(C)c1.O=C(O)C(F)(F)F (relative stereo) | 96 to 106 °C | – | –
COc1ccc2c(c1)CC[C@H](CN(C)CC(=O)[O-])[C@@H]2c1ccccc1.[Li+] (relative stereo) [Example (−)-4, (−)-Lithium cis-N-methyl-N-(6-methoxy-1-phenyl-1,2,3,4-tetrahydronaphthalen-2-ylmethyl) aminomethylcarboxylate] | – | – | pIC50, Inhibition of glycine transport by hGlyT-1 [1]: 6.8
CN(CC(=O)O)C[C@H]1CCc2cc(OC3CCCCC3)ccc2[C@H]1c1ccccc1.Cl (relative stereo) | > 210 °C (dec.) | – | –
CN(CC(=O)O)C[C@H]1CCc2cc(-c3ccccc3)ccc2[C@H]1c1ccccc1.Cl (relative stereo) | 210 to 221 °C | – | –
CN(CC(=O)O)C[C@H]1CCc2cc(C#N)ccc2[C@H]1c1ccccc1.Cl (relative stereo) | 197 °C (dec.) | – | –
COc1ccc2c(c1)CCC(CN(C)CC(=O)O)C2c1ccccc1 (racemic) [(+/−)-4, Lithium cis-N-methyl-N-(6-methoxy-1-phenyl-1,2,3,4-tetrahydronaphthalen-2-ylmethyl) aminomethylcarboxylate] | – | 501 nM | –
CN(CC(=O)O)C[C@H]1CCc2cc(OCC3CC3)ccc2[C@H]1c1ccccc1.Cl (relative stereo) | 173 to 177 °C | – | –
CN(CC(=O)O)C[C@H]1CCc2cc(OCc3ccccc3)ccc2[C@H]1c1ccccc1.Cl (relative stereo) | 200 to 210 °C | – | –
COC(=O)c1ccc2c(c1)CC[C@H](CN(C)CC(=O)O)[C@@H]2c1ccccc1.Cl (relative stereo) | 166 to 171 °C | – | –
CN(CC(=O)O)C[C@H]1CCc2ccccc2[C@H]1c1ccccc1.Cl (relative stereo) | 205 to 211 °C (dec.) | – | –

Now from value to molecule, other results behind:

melting point | IC50 [1] | Structure (SMILES) | other results
168 to 170 °C | – | CN(CC(=O)O)CC1CCc2cc(OCC(C)(C)C)ccc2C1c1ccccc1 (single isomer, unassigned; (-)) (as salt: salt) [Example (−)-34, (−)-Lithium cis-N-methyl-N-[1-phenyl-6-(2,2-dimethylpropyloxy)-1,2,3,4-tetrahydronaphthalen-2-ylmethyl] aminomethylcarboxylate] | –
– | 126 nM | Cc1ccc2c(c1)CCC(CN(C)CC(=O)O)C2c1ccccc1 (single isomer, unassigned; (-)) [Example (−)-23, (−)-Sodium cis-N-methyl-N-(6-methyl-1-phenyl-1,2,3,4-tetrahydronaphthalen-2-ylmethyl) aminomethylcarboxylate] | –
161 to 164 °C | – | CN(CC(=O)O)CC1CCc2cc(C(F)(F)F)ccc2C1c1ccc(F)cc1 (single isomer, unassigned; (-)) (as salt: salt) [Example (−)-8, (−)-Lithium N-methyl-N-[1-(4-fluorophenyl)-6-trifluoromethyl-1,2,3,4-tetrahydronaphthalen-2-ylmethyl] aminomethylcarboxylate] | –
– | 50.1 nM | CN(CC(=O)O)CC1CCc2cc(C(F)(F)F)ccc2C1c1ccc(F)cc1 (single isomer, unassigned; (-)) [Example (−)-8, (−)-Lithium N-methyl-N-[1-(4-fluorophenyl)-6-trifluoromethyl-1,2,3,4-tetrahydronaphthalen-2-ylmethyl] aminomethylcarboxylate] | –
– | 251 nM | Cc1ccc2c(c1)CCC(CN(C)CC(=O)O)C2c1ccccc1 (racemic) [(+/−)-23, Lithium cis-N-methyl-N-(6-methyl-1-phenyl-1,2,3,4-tetrahydronaphthalen-2-ylmethyl) aminomethylcarboxylate] | –
– | 251 nM | CN(CC(=O)O)CC1CCc2cc(OCC(C)(C)C)ccc2C1c1ccccc1 (single isomer, unassigned; (-)) [Example (−)-34, (−)-Lithium cis-N-methyl-N-[1-phenyl-6-(2,2-dimethylpropyloxy)-1,2,3,4-tetrahydronaphthalen-2-ylmethyl] aminomethylcarboxylate] | –
– | 100 nM | CN(CC(=O)O)CC1CCc2cc(Oc3ccccc3)ccc2C1c1ccccc1 (single isomer, unassigned; (-)) [Example (−)-17, (−)-Sodium cis-N-methyl-N-(6-phenoxy-1-phenyl-1,2,3,4-tetrahydronaphthalen-2-ylmethyl) aminomethylcarboxylate] | –
151 to 155 °C | 251 nM | CN(CC(=O)O)C[C@H]1CCc2cc(OCC(C)(C)C)ccc2[C@H]1c1ccccc1.Cl (racemic) [(+/−)-34, cis-N-Methyl-N-[6-(2,2-dimethylpropyloxy)-1-phenyl-1,2,3,4-tetrahydronaphthalen-2-ylmethyl] aminomethylcarboxylic acid hydrochloride] | –
137 to 142 °C | – | CN(CC(=O)O)CC1CCc2cc(C(F)(F)F)ccc2C1c1ccc(F)cc1 (racemic) (as salt: salt) [(+/−)-8, Lithium cis-N-methyl-N-[1-(4-fluorophenyl)-6-trifluoromethyl-1,2,3,4-tetrahydronaphthalen-2-ylmethyl] aminomethylcarboxylate] | –
135 to 138 °C | – | Cc1ccc2c(c1)CCC(CN(C)CC(=O)O)C2c1ccccc1 (racemic) (as salt: salt) [(+/−)-23, Lithium cis-N-methyl-N-(6-methyl-1-phenyl-1,2,3,4-tetrahydronaphthalen-2-ylmethyl) aminomethylcarboxylate] | –
– | 126 nM | CN(CC(=O)O)CC1CCc2cc(C(F)(F)F)ccc2C1c1ccc(F)cc1 (racemic) [(+/−)-8, Lithium cis-N-methyl-N-[1-(4-fluorophenyl)-6-trifluoromethyl-1,2,3,4-tetrahydronaphthalen-2-ylmethyl] aminomethylcarboxylate] | –
191 to 200 °C | – | CN(CC(=O)O)CC1CCc2cc(Oc3ccccc3)ccc2C1c1ccccc1 (racemic) (as salt: salt) [(+/−)-17, Lithium cis-N-methyl-N-(6-phenoxy-1-phenyl-1,2,3,4-tetrahydronaphthalen-2-ylmethyl) aminomethylcarboxylate] | –
– | 158 nM | CN(CC(=O)O)CC1CCc2cc(Oc3ccccc3)ccc2C1c1ccccc1 (racemic) [(+/−)-17, Lithium cis-N-methyl-N-(6-phenoxy-1-phenyl-1,2,3,4-tetrahydronaphthalen-2-ylmethyl) aminomethylcarboxylate] | –
